Reference: US20060247303A1, “7H-dibenzo[b,g][1,5]dioxocin-5-one derivatives and use thereof” (BAYER HEALTHCARE AG, priority 2002, published 2006)
Like-named read-outs stand apart in the source and are kept apart here.

How the values were obtained:
CETP = biological target: T1, CETP (Homo sapiens, UniProt P11597); assay: CETP fluorescence test; assay type: biochemical; conditions: CETP from human plasma, transfer of fluorescent cholesterol ester between liposomes, 37° C., 4 hours; read-out: IC50 [nM] Fluor. test
T1 construct: enriched CETP fraction, obtained from human plasma by means of hydrophobic chromatography; from tissue; host or cells: human plasma
T1 sequence (P11597 18-493): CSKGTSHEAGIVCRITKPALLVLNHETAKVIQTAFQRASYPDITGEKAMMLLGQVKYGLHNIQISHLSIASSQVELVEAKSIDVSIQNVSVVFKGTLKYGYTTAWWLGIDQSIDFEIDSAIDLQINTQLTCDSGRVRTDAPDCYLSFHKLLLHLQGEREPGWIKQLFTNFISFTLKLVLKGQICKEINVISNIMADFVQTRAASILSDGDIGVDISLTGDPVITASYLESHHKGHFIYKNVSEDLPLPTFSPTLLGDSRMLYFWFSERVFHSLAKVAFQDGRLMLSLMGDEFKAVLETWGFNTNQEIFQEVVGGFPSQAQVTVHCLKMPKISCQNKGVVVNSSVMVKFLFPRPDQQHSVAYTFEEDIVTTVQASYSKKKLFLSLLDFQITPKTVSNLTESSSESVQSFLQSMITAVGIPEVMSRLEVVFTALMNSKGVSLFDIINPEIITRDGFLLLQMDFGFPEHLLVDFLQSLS
Experimental: CETP is obtained in partially purified form from human plasma by differential centrifugation and column chromatography and used for the test. To this end, human plasma is adjusted to a density of 1.21 g per ml using NaBr and centrifuged at 4° C. at 50 000 rpm for 18 h. The bottom fraction (d>1.21 g/ml) is applied to a Sephadex® Phenyl-Sepharose 4B (Pharmacia) column, washed with 0.15 M NaCl/0.001 M tris HCl pH 7.4 and then eluted with distilled water. The CETP-active fractions are pooled, dialysed against 50 mM sodium acetate pH 4.5 and applied to a CM-Sepharose® column (Pharmacia). The mixture is then eluted using a linear gradient (0-1 M NaCl). The pooled CETP fractions are dialysed against 10 mM Tris HCl pH 7.4 and then further purified by chromatography on a Mono Q® column (Pharmacia).
Measurement of the CETP-catalysed transfer of a fluorescent cholesterol ester between liposomes—modified according to the procedure of Bisgaier et al., J. Lipid Res. 34, 1625 (1993):
For the production of the donor liposomes, 1 mg of cholesteryl 4,4-difluoro-5,7-dimethyl-4-bora-3a,4a-diaza-s-indacene-3-dodecanoate (cholesteryl BODIPY® FL C12, Molecular Probes) is dissolved in 600 μl of dioxane with 5.35 mg of triolein and 6.67 mg of phosphatidylcholine with gentle warming in an ultrasonic bath and this solution is added very slowly with ultrasonication to 63 ml of 50 mM tris/HCl, 150 mM NaCl, 2 mM EDTA buffer pH 7.3 at RT.
The suspension is then ultrasonicated under an N2 atmosphere for 30 minutes in the Braukson ultrasonic bath at about 50 watts, the temperature being kept at about 20° C.
The acceptor liposomes are obtained analogously from 86 mg of cholesteryl oleate, 20 mg of triolein and 100 mg of phosphatidylcholine dissolved in 1.2 ml of dioxane and 114 ml of above buffer by ultrasonication at 50 watts (20° C.) for 30 minutes.
For testing, a test mix consisting of 1 part of above buffer, 1 part of donor liposomes and 2 parts of acceptor liposomes is used.
80 μl of test mix are treated with 1-3 μg of enriched CETP fraction, obtained from human plasma by means of hydrophobic chromatography, and 2 μl of the substance to be investigated in DMSO and incubated at 37° C. for 4 hours.
The change in the fluorescence at 485/535 nm is a measure of the CE transfer; the inhibition of the transfer in comparison to the control batch without substance is determined.

[1] = biological target: T2, CETP activity in the serum (Homo sapiens, UniProt P11597); assay: Measurement of the ex vivo activities on transgenic hCETP mice; assay type: in vivo; conditions: mouse, serum cholesteryl ester transport; for inhibition at 100 mg/kg: 100 mg/kg oral; for inhibition at 30 mg/kg: 30 mg/kg oral
T2 construct: from tissue; host or cells: serum of transgenic hCETP mice
T2 sequence (P11597 18-493): T1 sequence (P11597 18-493)
Experimental: To test for CETP-inhibitory activity, the substances are administered orally using a stomach tube to transgenic hCETP mice bred in-house (Dinchuk et al. BBA (1995) 1295-301). To this end, male animals are randomly assigned to groups having an equal number of animals, as a rule n=3, one day before the start of the experiment. Before administration of the substance, blood is taken from each mouse by puncture of the retro-orbital venous plexus for the determination of its basal CETP activity in the serum (T1). The test substance is then administered to the animals using the stomach tube. At specific times after administration of the test substance, blood is taken from the animals by puncture a second time (T2), as a rule 0.5, or 1 and 2 h after substance administration, but if appropriate this can also be carried out at another time.
In order to be able to assess the inhibitory activity of a substance, for each time, i.e. 0.5 or 1 or 2 h, a corresponding control group is employed whose animals only receive the formulating agent without substance. In the control animals, the second blood sampling per animal is carried out as in the substance-treated animals in order to be able to determine the change in the CETP activity without inhibitor over the corresponding experimental time interval (0.5, 1 or 2 h).
After termination of the clotting, the blood samples are centrifuged and the serum is removed by pipette.
For the determination of the CETP activity, the cholesteryl ester transport over 4 h is determined. To this end, as a rule 2 μl of serum are employed in the test batch and the test is carried out as described under “CETP fluorescence test”.
The differences in the cholesteryl ester transport [pM CE*/h (T2)−pM CE*/h (T1)] are calculated for each animal and averaged in the groups. A substance which at one of the times reduces the cholesteryl ester transport by >30% is regarded as active.

HDL cholesterol = assay: Measurement of the in vivo activity in Syrian golden hamsters; conditions: peroral
Experimental: In experiments for the determination of the oral action on lipoproteins and triglycerides, test substance dissolved in DMSO and 0.5% suspended in Tylose are administered perorally by means of a stomach tube to Syrian golden hamsters bred in-house. For the determination of the CETP activity, before the start of the experiment blood is taken by retro-orbital puncture (about 250 μl). The test substances are then administered perorally by means of a stomach tube. The control animals receive identical volumes of solvent without test substance. […]
Clotting is terminated by incubation of 4° C. overnight, then centrifugation is carried out for 10 minutes at 6000×g. The content of cholesterol and triglycerides in the serum thus obtained is determined with the aid of modified commercially obtainable enzymatic tests (Ecolin 25 Cholesterol, 1.14830.0001 Merck Diagnostica; Ecoline 25 Triglycerides, 1.14856.0001 Merck Diagnostica). […]
10 μl of serum dilution are treated with 200 μl of Ecoline 25 reagent in 96-hole plates and incubated for 10 minutes at room temperature. The optical density is then determined at a wavelength of 490 nm using an automatic plate reader. The triglyceride or cholesterol concentration contained in the samples is determined with the aid of a standard curve measured in parallel. […]

HDL = assay: Measurement of the in vivo activity in transgenic hCETP mice; conditions: stomach tube
Experimental: In experiments for the determination of the oral action on lipoproteins and triglycerides, test substance is administered to transgenic mice [Dinchuck et al., BBA, 1295-301 (1995)] using a stomach tube. Before the start of the experiment, blood is taken from the mice retro-orbitally in order to determine cholesterol and triglycerides in the serum. The serum is obtained as described above for hamsters by incubation at 4° C. overnight and subsequent centrifugation at 6000×g. […] The change in the parameters measured are expressed as the percentage change compared with the starting value.

[2] = 0.5 h after administration, read-out: % inhibition at 100 mg/kg 0.5 h
[3] = 1 h after administration, read-out: % inhibition at 100 mg/kg 1 h
[4] = 2 h after administration, read-out: % inhibition at 100 mg/kg 2 h
[5] = 0.5 h after administration, read-out: % inhibition at 30 mg/kg 0.5 h
[6] = 1 h after administration, read-out: % inhibition at 30 mg/kg 1 h
[7] = 2 h after administration, read-out: % inhibition at 30 mg/kg 2 h
[8] = 3 h after administration, read-out: % inhibition at 30 mg/kg 3 h
[9] = 6 h after administration, read-out: % inhibition at 30 mg/kg 6 h

Row | Compound | IC50 (CETP) [nM] | inhibition at 100 mg/kg [1, 2] [%] | inhibition at 100 mg/kg [1, 3] [%] | inhibition at 100 mg/kg [1, 4] [%] | inhibition at 30 mg/kg [1, 5] [%] | inhibition at 30 mg/kg [1, 6] [%] | inhibition at 30 mg/kg [1, 7] [%] | inhibition at 30 mg/kg [1, 8] [%] | inhibition at 30 mg/kg [1, 9] [%] | % increase of HDL after 24 h (dose: 2 × 30 mg/kg) (HDL cholesterol) [%] | % increase of HDL after 4 d (dose: 4 × 30 mg/kg) (HDL) [%]
1 | COc1c([C@@H](O)CC(C)C)ccc2c1C(=O)OCc1cc(C)cc(OC(=O)CC(C)(C)C)c1O2 [Example A-23] | 250 | 59 | 52 | 31 |  |  |  |  |  |  | 
2 | COc1c([C@@H](O)CC(C)C)ccc2c1C(=O)OCc1c(Cl)c(C)c(Br)c(OC(=O)C3(C)CC4CCC3C4)c1O2 (stereo partly shown) [Example B-45] | 70 |  |  |  | 70 | 71 | 63 |  |  |  | 
3 | COc1c([C@@H](O)CC(C)C)ccc2c1C(=O)OCc1c(Br)c(C)c(Br)c(OC(=O)C3(C)CC4CCC3C4)c1O2 (stereo partly shown) [Example B-69] | 100 |  |  |  | 52 | 55 | 27 |  |  |  | 
4 | COc1c([C@@H](O)CC(C)C)ccc2c1C(=O)OCc1c(C)c(C)c(C)c(OC(=O)C3(C)CC4CCC3C4)c1O2 (stereo partly shown) [Example B-70] | 150 |  |  |  | 48 | 30 | 44 |  |  |  | 
5 | COc1c([C@@H](O)CC(C)C)ccc2c1C(=O)OCc1c(Cl)c(C)c(Cl)c(OC(=O)C3(C)CC4CCC3C4)c1O2 (stereo partly shown) [Example B-81] | 60 |  |  |  | 54 | 59 | 55 |  |  |  | 
6 | COc1c([C@@H](O)CC(C)C)ccc2c1C(=O)OCc1c(Cl)c(C)c(Cl)c(OC(=O)C3(C)CCCCC3)c1O2 [Example B-84] | 100 |  |  |  | 31 | 28 | 35 |  |  |  | 
7 | COc1c([C@@H](O)CC(C)C)ccc2c1C(=O)OCc1cc(C)cc(OC(=O)N3C4CCC3CC4)c1O2 [Example B-147] | 200 | 76 | 54 | 33 |  |  |  |  |  |  | 
8 | COc1c([C@@H](O)CC(C)C)ccc2c1C(=O)OCc1c(Cl)c(C)c(Br)c(OC(=O)[C@]3(C)CC4C=CC3C4)c1O2 (stereo partly shown) [Example C-31] |  |  |  |  | 83 | 76 | 64 |  |  |  | 
9 | COc1c([C@@H](O)CC(C)C)ccc2c1C(=O)OCc1c(Cl)c(C)c(C3CC3)c(OC(=O)C3(C)C4CCC3CC4)c1O2 (stereo partly shown) [Example C-56] | 57 |  |  |  |  | 66 |  | 53 | 14 |  | 
10 | COc1c([C@@H](O)CC(C)C)ccc2c1C(=O)OCc1cc(C)c(C3CC3)c(OC(=O)C3(C)C4CCC3CC4)c1O2 (stereo partly shown) [Example C-59] |  |  |  |  |  | 52 |  | 32 | 26 |  | 
11 | COc1c([C@@H](O)CC(C)(C)C)ccc2c1C(=O)OCc1c(Cl)c(C)c(Br)c(OC(=O)C3(C)C4CCC3CC4)c1O2 (stereo partly shown) [Example C-63] | 32 |  |  |  |  | 83 |  | 65 | 48 | 17 | 
12 | COCc1c(C)c(Cl)c2c(c1OC(=O)C1(C)C3CCC1CC3)Oc1ccc(C(O)CC(C)(C)C)c(OC)c1C(=O)OC2 (stereo not shown) [Example C-71] | 40 |  |  |  |  | 60 |  | 29 | 7 |  | 
13 | COc1c([C@@H](O)CC(C)(C)C)ccc2c1C(=O)OCc1c(Cl)c(C)c(C)c(OC(=O)C3(C)C4CCC3CC4)c1O2 (stereo partly shown) [Example C-72] | 30 |  |  |  |  |  |  |  |  |  | 68
14 | CCc1c(C)c(Cl)c2c(c1OC(=O)C1(C)C3CCC1CC3)Oc1ccc([C@@H](O)CC(C)(C)C)c(OC)c1C(=O)OC2 (stereo partly shown) [Example C-73] | 15 |  |  |  |  | 91 |  | 81 | 56 |  | 56
15 | CCc1c(C)c(Cl)c2c(c1OC(=O)C1(C)C3CCC1CC3)Oc1ccc([C@@H](O)CC(C)C)c(OC)c1C(=O)OC2 (stereo partly shown) [Example C-118] | 58 |  |  |  |  | 75 |  | 50 | 20 |  | 
